Measured values published in PubChem BioAssay (NCI).
Where “and” joins values, the source holds several entries; their conditions need not be identical. Equal entries are not always repeated.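 A five-concentration, 48-hour dose response in 96-well plates underlies each endpoint, interpolated linearly between surrounding concentrations. GI50: concentration for 50% inhibition of growth. TGI marks complete inhibition of growth.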

Experiments:
Test in all cases: NCI-60 cell line screen, 48 h
NCI-H226 lung = test system: NCI-H226 lung
SF-539 CNS = test system: SF-539 CNS
UACC-257 melanoma = test system: UACC-257 melanoma
DU-145 prostate = test system: DU-145 prostate
M14 melanoma = test system: M14 melanoma
NCI-H23 lung = test system: NCI-H23 lung
BT-549 breast = test system: BT-549 breast
OVCAR-4 ovarian = test system: OVCAR-4 ovarian
OVCAR-5 ovarian = test system: OVCAR-5 ovarian
U251 CNS = test system: U251 CNS

Row | SMILES | GI50 (NCI-H226 lung) | TGI (NCI-H226 lung) | GI50 (SF-539 CNS) | TGI (SF-539 CNS) | GI50 (UACC-257 melanoma) | TGI (UACC-257 melanoma) | GI50 (DU-145 prostate) | TGI (DU-145 prostate) | GI50 (M14 melanoma) | TGI (M14 melanoma) | GI50 (NCI-H23 lung) | TGI (NCI-H23 lung) | GI50 (BT-549 breast) | TGI (BT-549 breast) | GI50 (OVCAR-4 ovarian) | TGI (OVCAR-4 ovarian) | GI50 (OVCAR-5 ovarian) | TGI (OVCAR-5 ovarian) | GI50 (U251 CNS) | TGI (U251 CNS)
1 | CC(C)[C@H](N)C(=O)N1CCC[C@H]1B(O)O | > 100 µM | > 100 µM | > 100 µM | > 100 µM | > 100 µM | > 100 µM | > 100 µM | > 100 µM | > 100 µM | > 100 µM | > 100 µM | > 100 µM | > 100 µM | > 100 µM | > 100 µM | > 100 µM | > 100 µM | > 100 µM | > 100 µM | > 100 µM
2 | COc1ccc(-c2cc(=O)[nH]c3c(OC)c4ccccc4c(OC)c23)cc1 | > 20 µM | > 100 µM | 0.393 µM |  |  | > 100 µM | 0.671 µM | > 100 µM | 0.388 µM |  | 0.817 µM | > 100 µM | 2.33 µM | > 100 µM | 1.21 µM | > 100 µM | 3.58 µM | > 100 µM | 0.419 µM | > 100 µM
3 | Cc1cc(O)c(C(C)C)cc1S(=O)(=O)O (tested in a mixture with another compound) | 0.85 µM |  | 0.319 µM |  | 0.963 µM |  | 0.363 µM | 2.45 µM | 0.296 µM |  | 0.427 µM | > 100 µM and 10.4 µM | 2.26 µM | 7.54 µM | 0.507 µM | 6.64 µM | 0.727 µM | 7.54 µM | 0.368 µM | 
4 | COc1cc(C[C@H]2c3cc(OC)c(OC)cc3CCN2C)c(Oc2cc3c(cc2OC)-c2c(OC)c(OC)cc4c2[C@H](C3)N(C)CC4)cc1OC | 19.7 µM | 29.4 µM and 34.6 µM | 3.97 µM | 16.2 µM and 9.41 µM | 1.8 µM | 8.76 µM and 3.37 µM |  | 39.6 µM | 1.9 µM | 4.36 µM and 3.48 µM | 17.8 µM | 30.2 µM and 36.2 µM |  | 13.1 µM | 14.6 µM | 23.9 µM and 28.6 µM | 18 µM | 33.6 µM and 32.6 µM | 10.7 µM | 8.95 µM and 22.7 µM
5 | COc1ccc2nc3cccc([N+](=O)[O-])c3c(NCCCCCC(=O)O)c2c1 | 0.306 µM | 1.33 µM | 0.404 µM | 1.44 µM | 0.257 µM | 0.926 µM | 0.043 µM | 1.02 µM | 0.015 µM | 0.0466 µM | 0.952 µM | 4.19 µM | 0.131 µM | 0.422 µM | 0.393 µM | 1.72 µM | 0.132 µM | 1.11 µM | 0.0222 µM | 2.46 µM
6 | COc1ccc(C2=CC(c3ccc4c(c3)OCO4)c3c(c4ccccc4oc3=O)O2)cc1OC (stereo not given) |  | 6.72 µM |  | > 22.5 µM |  | > 100 µM |  | > 100 µM |  | > 100 µM |  | > 100 µM |  | > 100 µM |  | > 100 µM |  | > 100 µM |  | > 100 µM
7 | Cc1c(C(N)=O)sc2c1C(=O)N(Cc1ccccc1)C1=NN=C(c3ccc(Cl)cc3)CN12 | 2.49 µM | 11.8 µM | 3.39 µM | 11 µM | 3.75 µM | 16.5 µM | 3.44 µM | 14.5 µM | 2.38 µM | 6.75 µM | 3.86 µM | 19.4 µM | 3.66 µM | 16.4 µM | 2.81 µM | 15.8 µM | 8.47 µM | 21.1 µM | 2.39 µM | 13.2 µM
8 | CCN(CC)CCCC(C)Nc1ccnc2cc(Oc3ccccc3)ccc12 (stereo not given) | 8.4 µM and 14.9 µM | 31.1 µM and > 100 µM | 2.15 µM and 2 µM | 4.35 µM and 4.28 µM | 1.95 µM and 2.09 µM | 3.59 µM and 3.94 µM | 5.73 µM and 54.6 µM | 22.4 µM and > 100 µM | 1.77 µM and 1.79 µM | 3.5 µM and 3.35 µM | 10.4 µM and 22.8 µM | 28.7 µM and > 100 µM | 7.77 µM and 14.9 µM | 21.3 µM and 30.4 µM | 9.78 µM and 16 µM | 41.7 µM and 59.2 µM | 13.1 µM and 13.4 µM | 41.3 µM and 44.1 µM | 2.71 µM and 5.51 µM | 9.31 µM and 19.8 µM
9 | COc1cc([C@@H]2OC[C@@H]3C(c4cc(OC)c5c(c4)OCO5)OC[C@@H]32)cc(OC)c1OC (stereo not given in full) |  | > 100 µM |  | > 100 µM |  | > 100 µM |  | > 100 µM |  | > 100 µM |  | > 100 µM |  | > 100 µM |  | > 100 µM |  | > 100 µM |  | > 100 µM
10 | CC(C)N(Cc1ccccc1)c1c(S)ssc1=S | 3.14 µM | 36.1 µM | 3.06 µM | 10.4 µM | 1.54 µM | 6.2 µM | 3.15 µM | 28.7 µM | 4.67 µM | > 100 µM | 3.83 µM | 96.3 µM | 3.01 µM | 9.21 µM | 0.641 µM | > 100 µM | 3.56 µM | > 100 µM | 2.58 µM | 15.9 µM
11 | CC(=O)OCC1OC(n2cnc(C(N)=S)c2N)C(OC(C)=O)C1OC(C)=O (stereo not given) |  | > 100 µM |  | > 100 µM |  | > 100 µM |  | > 100 µM |  | > 100 µM |  | > 100 µM |  | > 100 µM |  | > 100 µM |  | > 100 µM |  | > 100 µM
12 | C#Cc1c(F)ccc2cc(O)cc(-c3ncc4c(N5CC6CCC(C5)N6)nc(OC[C@@]56CCCN5C[C@H](F)C6)nc4c3F)c12 | 15.1 µM | 35.1 µM | 14 µM | 27.2 µM | 18.1 µM | 35.1 µM | 14.9 µM | 28.6 µM | 14 µM | 29.6 µM | 1.94 µM | 15.1 µM | 8.22 µM | 22.8 µM | 16.8 µM | 37.1 µM | 2.51 µM | 13.5 µM | 10.9 µM | 31.5 µM
13 | COc1ccc2c(c1)c(=O)oc1cc(OC/C(C)=N\O)ccc12 | > 100 µM | > 100 µM | 59.5 µM | > 100 µM | > 100 µM | > 100 µM | > 100 µM | > 100 µM | > 100 µM | > 100 µM | > 100 µM | > 100 µM | 49.2 µM | > 100 µM | > 100 µM | > 100 µM | > 100 µM | > 100 µM | 33.4 µM | > 100 µM
14 | C=C(C)C(=O)O[C@H]1CC(=C)[C@@H]2C[C@H](O)[C@](O)(CCl)[C@@H]2[C@H]2OC(=O)C(=C)[C@@H]21 | 19.6 µM | 46.2 µM | 1.98 µM | 4.35 µM | 3.65 µM | 13.5 µM | 2.16 µM | 6.33 µM | 2.78 µM | 6.88 µM | 11.6 µM | 25.7 µM | 1.84 µM | 3.45 µM | 2.08 µM | 4.01 µM | 14.8 µM | 29.6 µM | 2.47 µM | 6.14 µM
15 | COc1cc(OC(=O)c2ccccc2)cc2c1C(=O)C=CC2=O |  | 49.4 µM |  | 41.7 µM |  | 31.6 µM |  | 34.4 µM |  | 32.5 µM |  | 33.3 µM |  | 29.8 µM |  | 12.3 µM |  | 54.5 µM |  | 38.2 µM
